Consider two compounds from patent publication US12594265B2, “Methods and compositions for inhibition of STAT3” (Ohio State Innovation Foundation, priority 2017, dated 2026).

The structures appear in SMILES notation. “Also recorded” adds a separate entry of the source.

This experiment has as its system IL-17 production in myelin-specific CD4 T cells. In words: Inhibition of IL-17 production in myelin-specific CD4 T cells (splenocytes activated with MBP Ac1-11 plus TGF-β and IL-6; flow cytometry, ELISA). The class given is cell-based, mice. To be noted: 3 days; for suppression of IL-17 production in myelin-specific CD4 T cells (in words): in vitro; for suppression of IL-17 production: murine myelin-specific CD4 T cells. The method, then: In vitro culture of splenocytes from TCR transgenic mice. Splenocytes were prepared from naïve 5-10-wk-old Vα2.3/Vβ8.2 TCR transgenic mice and cultured in 24-well plates at […] with irradiated B10.PL splenocytes (6×10^8 cells/well). Cells were activated with of MBP Ac1-11 (10 μg/ml) and different combination of cytokines or neutralizing antibodies for cytokines to differentiate effector T helper cells. Cytokines and antibody concentrations were as follows: 0.5 ng/ml IL-12, 25 ng/ml IL-6, 1 ng/ml TGFβ1, 2 μg/ml anti-IFNγ, 1 μg/ml anti-IL-12, 2 μg/ml anti-IL-4, and 0.35 μg/ml anti-TGFβ (Yang, Weiner et al. 2009).
ELISA Assay. ELISA was performed to detect the expression of IL-17 and IFNγ in supernatant. Purified anti-mouse IL-17 primary antibody (BD bioscience) was diluted in 0.1 M NaHCO3 (pH 8.2) at 2 μg/ml while purified anti-mouse IFNγ primary antibody was diluted in 0.1M NaHCO3 (pH 9.5) at 2 μg/ml. Immunolon II plates (Dynatech Laboratories) were coated with 50 μl of primary antibodies per well and incubated overnight at 4° C. The plates were washed twice with PBS/0.05% Tween 20. The plates were blocked with 200 μl of 1% BSA in PBS per well for 2 h. The plates were washed twice with PBS/0.05% Tween 20, and 100 μl of supernatants were added in duplicate. The plates were incubated over-night at 4° C. and washed four times with PBS/0.05% Tween 20. Biotinylated rat anti-mouse secondary antibody (BD bioscience) were diluted in PBS/1% BSA, 100 μl of 1 μg/ml biotinylated antibody was added to each well, and plates were incubated at room temperature for 1 h. The plates were washed six times with PBS/0.05% Tween 20, and 100 μl avidin-peroxidase was added at 2.5 μg/ml and incubated for 30 min. The plates were washed eight times with PBS/0.05% Tween 20, and 100 μl ABTS substrate containing 0.03% H2O2 (for IL-17) or TMB substrate (for IFNγ) was added to each well. The plate was monitored for 10-20 min for color development and read at A 405. A standard curve was generated from cytokine standard, and the cytokine concentration in the samples was calculated.
Intracellular staining and flow cytometric analysis. Flow cytometric analysis was performed to evaluate the expression of surface markers and T-bet in CD4 T cells, as previously described (Yang, Weiner et al. 2009). Briefly, splenocytes were activated with antigen or αCD3/CD28 for 48 to 72 hours. Cells were then collected, washed, and resuspended in staining buffer (1% BSA in PBS). The cells were incubated with mAbs to the cell-surface markers for 30 min at 4° C. After washing twice with staining buffer, cells were fixed and permeabilized using Cytofix/Cytoperm solution for 20 min at 4° C. […] 80,000-100,000 live cell events were acquired on a FACSCanto (BD) and analyzed using FlowJo software (Tree Star, Inc.). […]

In the case of `NS(=O)(=O)c1cccc2c1C(=O)c1cccc(O)c1C2=O` [LLL12], the “suppression of IL-17 production in myelin-specific CD4 T cells (in words)” value is recorded as “inhibition of IL-17”.

For `CN(C)C(=O)Oc1cccc2c1C(=O)c1cccc(S(N)(=O)=O)c1C2=O` [LLL12b], the “suppression of IL-17 production in myelin-specific CD4 T cells (in words)” value is on record as “significantly suppress IL-17 production; also recorded: inhibits myelin-specific IL-17 production in a dose-dependent manner”. Further, the “suppression of IL-17 production” value (0.25 μM) was determined as 44%. Moreover, where the note is “0.50 μM”, the “suppression of IL-17 production” value was found to be 72%.
